From patent US7396851B2, “Heterocyclic and benzoheterocyclic polyamides structurally related to the natural antibiotic distamycin A for the treatment of β-thalassaemia” (priority 2001, dated 2008) come the findings set out here.

Assay [1] concerns mRNA for γ-globin. Put plainly: Expression of genes coding for γ-globins by RT-PCR / Northern blotting in K562 cells. Format: cell-based, human. Conditions: concentration 50 nM, quantitative RT-PCR, untreated control = 1. How it is done: The expression of genes coding for γ-globins was evaluated by RT-PCR (reverse transcriptase PCR) and Northern blotting (25). […] The evaluations were carried out after 6 days' induction with the indicated molecules.
The Technique used is that of quantitative RT-PCR (28, 29) using the following oligonucleotide primers and probe: γ-globin forward primer, 5′-TGGCAAGAAGGTGCTGACTTC-3′; γ-globin reverse primer, 5′-TCA CTC AGC TGG GCA AAG G-3′; probe γ-globin, 5′-FAM-TGGGAGATGCCATAAAGCACCTGG-TAMRA-3′(FAM=6-carboxy fluorescein, TAMRA=6-carboxy-N,N,N′,N′-tetramethylrhodamine).

For assay [2], the system named is human cell line K562. The assay can be described thus: Erythroid differentiation of K562 cells (benzidine-positive cells). The assay is classed as cell-based. Conditions: mean±SD of five independent experiments. Here is the method: The activity of the distamycin analogues described previously as inducers of erythroid cell differentiation was evaluated by studying the erythroid differentiation induced in human cell cultures.
The biological activity was evaluated by examining the capacity of those compounds to induce erythroid differentiation in the human cell line K562, which is capable of undergoing erythroid differentiation by expressing the genes for γ-globin if subjected to treatment with modifiers of the biological response that are suitable for the purpose (19-24). The level of differentiation was evaluated by analysing the positive reaction of the cells to benzidine (23). Some of the data obtained are given in Table 1, which represents the results of five independent experiments (mean±SD).

Structures can show the parent of a compound that is named as a salt.

Take `Cl.Cn1cc(NC(=O)c2cc(NC(=O)c3cc(NC(=O)c4ccc(N(CCCl)CCCl)cc4)cn3C)cn2C)cc1C(=O)NCCC(=N)N` [Compound 1, 3-(1-methyl-4-(1-methyl-4-(1-methyl-4-(4-(N,N-bis(2-chloroethyl)amino)benzenecarboxamido)pyrrole-2-carboxamido)pyrrole-2-carboxamido)pyrrole-2-carboxamido)propionamidine hydrochloride]: the “mRNA for γ-globin, increase compared with untreated control K562 cells” value in assay [1] came out at 11.5 ± 2.5. In assay [2] (concentration 50 nM), the “erythroid differentiation (%) = percentage of K562 cells that react positively to benzidine” value came out at 65.5 ± 8.8%.
With `Cl.Cn1cc(NC(=O)c2cc(NC(=O)c3nc(NC(=O)c4ccc(N(CCCl)CCCl)cc4)cn3C)cn2C)cc1C(=O)NCCC(=N)N` [Compound 2, 3-(1-methyl-4-(1-methyl-4-(1-methyl-4-(4-(N,N-bis(2-chloroethyl)amino)benzenecarboxamido)imidazole-2-carboxamido)pyrrole-2-carboxamido)pyrrole-2-carboxamido)propionamidine hydrochloride], the “erythroid differentiation (%) = percentage of K562 cells that react positively to benzidine” value in assay [2] (concentration 50 nM) was 85.2 ± 12.8%.
Regarding `Cn1cc(NC(=O)c2cc(NC(=O)c3cc(NC(=O)c4cc5cc(N(CCCl)CCCl)ccc5o4)cn3C)cn2C)cc1C(=O)NCCC(=N)N` [Compound 3, 3-(1-methyl-4-(1-methyl-4-(1-methyl-4-(5-N,N-bis(2-chloroethyl)aminobenzofurane-2-carboxamido)pyrrole-2-carboxamido)pyrrole-2-carboxamido)pyrrole-2-carboxamido)propionamidine hydrochloride], the “erythroid differentiation (%) = percentage of K562 cells that react positively to benzidine” value in assay [2] (concentration 100 nM) was 72.4 ± 10.2%.
Turning to `CN(C)CCCNC(=O)c1cc2cc(NC(=O)c3cc4cc(NC(=O)c5ccc(N(CCCl)CCCl)cc5)ccc4[nH]3)ccc2o1` [Compound 4, N-(3′-dimethylaminopropyl)-5-(5-(4-(bis(2-chloroethyl)amino)benzoylamino)-1H-indol-2-carboxamido)benzofurane-2-carboxamido hydrochloride], the “erythroid differentiation (%) = percentage of K562 cells that react positively to benzidine” value in assay [2] (concentration 500 nM) turned out to be 30 ± 3.8%.
`Cn1cc(NC(=O)c2cc(NC(=O)c3cc(N(CC4CO4)CC4CO4)cn3C)cn2C)cc1C(=O)NCC/C(N)=N/C#N` (stereo not drawn) [Compound 5, 3-(1-methyl-4-(1-methyl-4-(1-methyl-4-(N,N-bis(2-oxiranylmethyl)amino)pyrrole-2-carboxamido)pyrrole-2-carboxamido)pyrrole-2-carboxamido)cyanopropionamidine hydrochloride]: the “erythroid differentiation (%) = percentage of K562 cells that react positively to benzidine” value in assay [2] (concentration 50 nM) amounted to 77 ± 10.1%.
